One series has as its system retrobulbar blood flow. Nature of the series: Effect of benzalkonium chloride compositions on retrobulbar blood flow (Example 2). Type of series: in vivo. The note with it: benzalkonium chloride (0.01%, 0.05, 0.1%, 0.2% in isotonic PBS pH 7.4), sufficient amount, as a mist; animals. How it is done: The effect of compositions including benzalkonium chloride administered in accordance with the teachings herein is performed substantially as described in Example 1. Specifically, four isotonic PBS compositions having pH of 7.4 are prepared having 0.01%, 0.05, 0.1% and 0.2% benzalkonium chloride, respectively, as an ocular irritant.
The compositions are administered to animals and the effect on retrobulbar blood flow is determined, substantially as described above.

Another series has as its system eye. In words: Discomfort and irritation of animals after benzalkonium chloride compositions (Example 2). It is filed as in vivo.

benzalkonium chloride: in the series with retrobulbar blood flow, the “Effect on retinal blood flow” value is recorded as “substantial increase in retinal blood flow”. Further, the Discomfort and irritation result is “little or no substantial discomfort and irritation” with eye (benzalkonium chloride composition as a mist); “cause discomfort and irritation” in the series with eye (benzalkonium chloride composition as drops).

Source of the values: patent publication US20110014294A1, “STIMULATION OF OCULAR RETROBULBAR BLOOD FLOW USING OCULAR IRRITANTS” (PHARMALIGHT INC., priority 2008, published 2011).
